Holding throughout (type): cell-based
Test [1] relates to S. pneumoniae SV1 SP-3. In words: in vitro antibacterial activity (MIC), S. pneumoniae. The following applies: Streptococcus pneumoniae, SV1SP3; strain SV1 SP-3; MIC = lowest concentration preventing macroscopically visible growth; read-out: in vitro antibacterial activity MIC5 S. pneumoniae SV1 SP-3. The source says:
(§1) The in vitro antibacterial activity of the compounds of the present invention may be assessed by following procedures recommended in (1) National Committee for Clinical Laboratory Standards (January 2003), Methods for dilution antimicrobial tests for bacteria that grow aerobically, Approved Standard (6th ed), M7-A6, NCCLS, Wayne, Pa.; (2) National Committee for Clinical Laboratory Standards (March 2001), Methods for antimicrobial susceptibility testing of anaerobic bacteria, Approved Standard (5th ed), M11-A4, NCCLS, Wayne, Pa.; (3) National Committee for Clinical Laboratory Standards (Jan. 2003), MIC testing supplemental tables, M100-S13 (for use with M7-A6), NCCLS, Wayne, Pa.; and (4) Murray P R, Baron E J, Jorgensen J H, et al. Manual of Clinical Microbiology (8th ed) Washington, D.C.: American Society for Microbiology Press, 2003. The antibacterial activity can be presented in the form of MIC value. The MIC value is the lowest concentration of drug, which prevented macroscopically visible growth under the conditions of the test.

For test [2], the system named is S. aureus UC-76 SA-1. In words: in vitro antibacterial activity (MIC), S. aureus. The following applies: Staphylococcus aureus, UC76; strain UC-76 SA-1; MIC = lowest concentration preventing macroscopically visible growth; read-out: in vitro antibacterial activity MIC5 S. aureus UC-76 SA-1.
Excerpt: as §1

Test [3] has as its system E. faecalis MGH-2 EF 1-1. In words: in vitro antibacterial activity (MIC), E. faecalis. The conditions noted are these: Enterococcus faecalis, MGH2EF11; strain MGH-2 EF 1-1; MIC = lowest concentration preventing macroscopically visible growth; read-out: in vitro antibacterial activity MIC5 E. faecalis MGH-2 EF 1-1.
Excerpt: as §1

In brackets after ≈: the same amount, converted by molar mass.

With `CCC(=O)NC[C@H]1CN(c2ccc3c(C)noc3c2)C(=O)O1` [Example 2, (S)—N-[3-(3-methyl-benzo[d]isoxazol-6-yl)-2-oxo-oxazolidin-5-ylmethyl]-propionamide], the results for the MIC in test [1], in test [2] and in test [3] were 2 µg/mL (≈ 6.59 µM), 2 µg/mL (≈ 6.59 µM) and 4 µg/mL (≈ 13.2 µM), respectively.

Turning to `CNC(=O)[C@H]1CN(c2ccc3c(C)noc3c2)C(=O)O1` [Example 7, (R)-3-(3-methyl-benzo[d]isoxazol-6-yl)-2-oxo-oxazolidine-5-carboxylic acid methylamide], the MIC in test [1], in test [2] and in test [3] was 4 µg/mL (≈ 14.5 µM) throughout.

For `CCONC(=O)[C@H]1CN(c2ccc3c(C)noc3c2)C(=O)O1` [Example 9, (R)-3-(3-methyl-benzo[d]isoxazol-6-yl)-2-oxo-oxazolidine-5-carboxylic acid ethoxy-amide], the MIC in test [1] came to 8 µg/mL (≈ 26.2 µM); in test [2], 4 µg/mL (≈ 13.1 µM); in test [3] it was 4 µg/mL (≈ 13.1 µM).

As for `COC(=O)NC[C@H]1CN(c2ccc3c(C)noc3c2)C(=O)O1` [Example 3, (S)-[3-(3-methyl-benzo[d]isoxazol-6-yl)-2-oxo-oxazolidin-5-ylmethyl]-carbamic acid methyl ester], the MIC is 2 µg/mL (≈ 6.55 µM) in test [1], 4 µg/mL (≈ 13.1 µM) in test [2] and 4 µg/mL (≈ 13.1 µM) in test [3].

Take `CONC(=O)[C@H]1CN(c2ccc3c(C)noc3c2)C(=O)O1` [Example 8, (R)-3-(3-methyl-benzo[d]isoxazol-6-yl)-2-oxo-oxazolidine-5-carboxylic acid methoxy-amide]: the MIC was 8 µg/mL (≈ 27.5 µM) in test [1], 4 µg/mL (≈ 13.7 µM) in test [2] and 4 µg/mL (≈ 13.7 µM) in test [3].

Turning to `Cc1noc2cc(N3C[C@H](Cn4ccnn4)OC3=O)ccc12` [Example 4, (R)-3-(3-methyl-benzo[d]isoxazol-6-yl)-5-[1,2,3]triazol-1-ylmethyl-oxazolidin-2-one], the MIC in test [1] was found to be 2 µg/mL (≈ 6.68 µM); in test [2] it was 4 µg/mL (≈ 13.4 µM); in test [3], 4 µg/mL (≈ 13.4 µM).

Consider `Cc1noc2cc(N3C[C@H](C(N)=O)OC3=O)ccc12` [Example 6, (R)-3-(3-methyl-benzo[d]isoxazol-6-yl)-2-oxo-oxazolidine-5-carboxylic acid amide], for which the MIC is 4 µg/mL (≈ 15.3 µM) in test [1], 4 µg/mL (≈ 15.3 µM) in test [2] and 8 µg/mL (≈ 30.6 µM) in test [3].

In the case of `CC(=O)NC[C@H]1CN(c2ccc3c(C)noc3c2)C(=O)O1` [Example 1, (S)—N-[3-(3-methyl-benzo[d]isoxazol-6-yl)-2-oxo-oxazolidin-5-ylmethyl]-acetamide], the MIC in test [1] was found to be 1 µg/mL (≈ 3.46 µM); in test [2], 2 µg/mL (≈ 6.91 µM); in test [3], 2 µg/mL (≈ 6.91 µM).

For the origin of these results see patent publication US20090221655A1, “ANTIBACTERIAL AGENTS” (Pitzer, Inc., priority 2006, published 2009).
